≈ marks a conversion by molar mass, not a printed value.
How the values were obtained:
[1] = Solubility of analogs in pH 7.2 phosphate buffer; format: physicochemical; conditions: aqueous buffer; pH 7.2 phosphate buffer with DMSO, 2-3 h room temperature, absorbance at 310 nm, mean of 3
Procedure: The method for determining the solubilities of the xanthines is detailed in the Experimental Section below.
Solubility of Analogs. To 675 uL of pH 7.2 phosphate buffer was added 25 uL of a DMSO solution (approx. 10 mM) of the xanthine to be assayed. This was stirred for one minutes by a vortex mixer then left at room temperature for 2-3 hours. In each case (except where noted) a fine precipitate resulted which was collected by centrifugation at the end of the waiting period. After the dissolution period, a 100 uL aliquot of the supernatant was added to 1.0 mL of methanol and the absorbance measured at 310 nm using an extinction coefficient of 28,180 for calculating the concentration. Each xanthine was assayed 3 times and the concentration represent the averages of these 3 determinations.

[2] = molecular target: T1, A1-adenosine receptors (Rattus norvegicus, UniProt P25099); assay: Competitive binding assay at A1 receptors ([3H]RPIA); conditions: for Ki: [3H]RPIA, rat brain membranes, read-out: Ki at central rat receptors, A1; for A2/A1 ratio: ratio of Ki values A2/A1
T1 construct: adenosine receptors in rat cerebral cortex membranes was assayed as described; from tissue; b141 says rat striatum
T1 sequence (P25099 1-326): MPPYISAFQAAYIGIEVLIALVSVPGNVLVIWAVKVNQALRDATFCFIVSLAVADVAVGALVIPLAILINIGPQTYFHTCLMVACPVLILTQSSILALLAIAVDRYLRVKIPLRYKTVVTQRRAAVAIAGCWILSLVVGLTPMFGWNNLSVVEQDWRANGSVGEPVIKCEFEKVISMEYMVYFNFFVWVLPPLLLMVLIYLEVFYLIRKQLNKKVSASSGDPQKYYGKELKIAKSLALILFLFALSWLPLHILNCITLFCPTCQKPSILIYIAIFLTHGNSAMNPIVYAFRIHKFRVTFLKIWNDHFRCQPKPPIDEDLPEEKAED
Procedure: Table 4 also indicates the synthesis method used for each compound therein.
(§1) A1 ligand = [^3 H]RPIA, A2 ligand = [^3 H]CGS21680
(§2) Inhibition of binding by a range of concentrations of an adenosine derivative was assessed in triplicate in at least three separate experiments. At least seven different concentrations spanning three orders of magnitude, adjusted appropriate for the IC50 of each compound were used. IC50 values Ci/mmol) or [^3 H]CGS21680. Inhibition of [^3 H]NECA binding of to A2 -adenosine receptors in rat striatal membranes were measured as described, except that 5 mM theophylline was used to define non-specific binding. N^6 -Cyclopentyladenosine was present at 50 nM to inhibit binding of the ligand at A1 -adenosine receptors. IC50 values were converted to Ki -values as described.

[3] = molecular target: T2, A2-adenosine receptors (Rattus norvegicus, UniProt P30543); assay: Competitive binding assay at A2 receptors ([3H]CGS21680); conditions: [3H]CGS21680, rat striatum; read-out: Ki at central rat receptors, A2
T2 construct: adenosine receptors in rat striatal membranes were measured as described; from tissue; host or cells: rat striatal membranes
T2 sequence (P30543 whole entry): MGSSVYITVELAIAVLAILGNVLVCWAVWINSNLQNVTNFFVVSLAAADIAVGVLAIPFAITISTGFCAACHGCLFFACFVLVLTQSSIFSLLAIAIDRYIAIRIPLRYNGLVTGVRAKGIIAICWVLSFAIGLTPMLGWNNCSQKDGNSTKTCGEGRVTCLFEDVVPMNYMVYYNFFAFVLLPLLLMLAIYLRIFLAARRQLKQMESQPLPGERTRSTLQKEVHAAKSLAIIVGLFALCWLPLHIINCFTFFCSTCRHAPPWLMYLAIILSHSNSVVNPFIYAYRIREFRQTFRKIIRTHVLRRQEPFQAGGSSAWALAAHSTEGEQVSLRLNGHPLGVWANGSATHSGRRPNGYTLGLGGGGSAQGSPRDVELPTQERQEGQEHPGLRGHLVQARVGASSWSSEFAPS
Procedure: The Ki values (in nM) for A1 and A2 binding in rat striatum are presented in Table 4 with the relative selectivities expressed as the ratio of Ki values. […] Table 4 also indicates the synthesis method used for each compound therein.
as §1, §2

[4] = molecular target: T1, A1-adenosine receptors; format: binding; conditions: 0.75 h; for inhibition at 0.02 µM: 20 nM
Procedure: The degree of irreversible binding was determined as previously described and the percent inhibition of selected compounds is presented in Table 5.
Irreversible Binding to Rat Brain. For studies of irreversible incorporation, membranes were prepared as described above and then incubated with the indicated (Tables I and II) concentration of ligand for 45 minutes at 37° C. […] Membranes were then suspended in Buffer A containing 10^-4 M 3-isobutyl-1-methylxanthine (IBMX) and incubated at 25° C. for 18 hours with shaking. Membranes were then washed twice with Buffer A, treated with adenosine deaminase as described above, and used in radioligand binding studies as described above.
The long treatment with IBMX was found necessary to remove all of the non-incorporated ligands from membranes. Multiple washes (up to 8) with buffer alone were insufficient to remove all the reversibly bound ligands.

[5] = molecular target: rat brain A1-receptors; conditions: prior work; cited from earlier work

| SMILES | solubility [1] | Ki [2] | A2/A1 ratio [2] | Ki [3] | inhibition at 0.02 µM [4] | inhibition at 0.05 µM ([4]; 50 nM) | Ki [5] | inhibition at 0.005 µM ([4]; 5 nM) |
| --- | --- | --- | --- | --- | --- | --- | --- | --- |
| CCCn1c(=O)c2[nH]c(-c3ccc(OCC(=O)NCCNC(=S)Nc4cc(N=C=S)cc(NC(=S)NCCNC(C)=O)c4)cc3)nc2n(CCC)c1=O [Compound 25] | > 100 µM | 57.6 ± 15.7 nM | 44 | 2540 ± 283 nM |  |  |  |  |
| CCCn1c(=O)c2[nH]c(-c3ccc(OCC(=O)NCCNC(=S)Nc4cc(N=C=S)cc(C(=O)NCCN(C)C)c4)cc3)nc2n(CCC)c1=O [Compound 14, 1,3-Dipropyl-8-(4-(((((2-((((3-(2-dimethylaminoethylcarboxamide)-5-isothiocyanatophenyl)amino)thiocarbonyl)amino)ethyl)amino)carbonyl)methyl)oxy)phenyl)xanthine] | 28.7 ± 0.03 µM (≈ 21.1 µg/mL) | 7.62 ± 2.19 nM | 65 | 497 ± 74 nM | 30 ± 8.7% | 46.3 ± 21.8% |  |  |
| CCCn1c(=O)c2[nH]c(-c3ccc(OCC(=O)NCCNC(=S)Nc4cc(N=C=S)cc(NC(=S)NCCNC(=O)c5ccc(N=[N+]=[N-])cc5O)c4)cc3)nc2n(CCC)c1=O |  | 25.2 nM | 14 | 341 nM |  |  |  |  |
| CCCn1c(=O)c2[nH]c(-c3ccc(OCC(=O)NCCNC(=S)Nc4ccc(N=C=S)cc4)cc3)nc2n(CCC)c1=O [p-DITC-XAC (2b)] |  |  |  |  |  |  | 6.6 nM |  |
| CCCn1c(=O)c2[nH]c(-c3ccc(OCC(=O)NCCNC(=S)Nc4cc(N=C=S)cc(C(=O)NCCNc5ccc([N+](=O)[O-])c6nonc56)c4)cc3)nc2n(CCC)c1=O [R' = CONH(CH2)2 NH-NBD] |  | 18.1 nM | 73 | 1330 nM |  |  |  |  |
| CCCn1c(=O)c2[nH]c(-c3ccc(OCC(=O)NCCNC(=S)Nc4cc(N=C=S)cc(C(=O)NCCNC(=O)CCCC[C@@H]5SC[C@@H]6NC(=O)N[C@@H]65)c4)cc3)nc2n(CCC)c1=O [R' = CONH(CH2)2 NHCO-biotin] |  | 20.1 ± 3.3 nM | 572 | 11500 nM |  |  |  |  |
| CCCn1c(=O)c2[nH]c(-c3ccc(OCC(=O)NCCN)cc3)nc2n(CCC)c1=O [XAC, 8-[4-[[[[(2-aminoethyl)-amino]carbonyl]methyl]oxy]phenyl]-1,3-dipropylxanthine] |  |  |  |  |  |  | 1.2 nM |  |
| CCCn1c(=O)c2[nH]c(-c3ccc(OCC(=O)NCCNC(=S)Nc4cc(N=C=S)cc(NC(=S)NCC(=O)OC(C)(C)C)c4)cc3)nc2n(CCC)c1=O |  | 8.3 ± 2.2 nM | 397 | 3290 nM |  |  |  |  |
| CCCn1c(=O)c2[nH]c(-c3ccc(OCC(=O)NCCNC(=S)Nc4cc(N=C=S)cc(C(=O)NCCNC(=O)CCc5ccc(O)cc5)c4)cc3)nc2n(CCC)c1=O [Compound 17] |  | 7.08 ± 1.91 nM | 198 | 1400 nM |  |  |  |  |
| CCCn1c(=O)c2[nH]c(-c3ccc(OCC(=O)NCCNC(=S)Nc4cc(N=C=S)cc(C(N)=O)c4)cc3)nc2n(CCC)c1=O [Compound 13, 1,3-Dipropyl-8-(4-(((((2-((((3-carboxamide-5-isothiocyanatophenyl)amino)thiocarbonyl)amino)ethyl)amino)carbonyl)methyl)oxy)phenyl)xanthine] | 31.4 ± 0.39 µM (≈ 20.8 µg/mL) | 9.47 ± 2.99 nM | 39 | 365 ± 35 nM | 90.3 ± 7% |  |  | 68 ± 7.5% |

— US5310916A, “Trifunctional agents useful as irreversible inhibitors of A1-adenosine receptors” (The United States of America as represented by the …, priority 1990, dated 1994)
